In ChEMBL document CHEMBL3507680, “University of Dundee, Gates Library screen for HepG2 cell viability”:

Experiment: Human HepG2 cell viability assay in 384 well format
Type: toxicity, cell-based
Set-up: dose 125 nL, time 70.5 hour; concentration not given beside the values
Details: HepG2 cells, read-out: Inhibition

Row | Compound | cytotoxicity at 70.5 h [%]
1 | O=C1CC(N(C(=O)Cc2csc(-c3ccccc3)n2)C2CC2)C(=O)N1 (stereo not drawn) | -1.89
2 | COC(=O)c1cccc(S(=O)(=O)Nc2ncc(C)s2)c1 | 0.827
3 | N#CCCN(CCC#N)C(=O)COC1CCCCC1 | -6.88
4 | Cc1nc2cc(=O)[nH]n2c(C)c1CNC(=O)C(C)(C)c1ccccc1 | -1.88
5 | Cc1ccc(CC(=O)NCC(O)c2ccc(Cl)cc2Cl)cn1 (stereo not drawn) | 3.42
6 | O=C(CCC1CCCC1)N1CCC(O)(C(F)(F)F)C1 (stereo not drawn) | -0.869
7 | CSCC(C)C(=O)NCc1c(C)nc2cc(=O)[nH]n2c1C (stereo not drawn) | 7.35
8 | CC(C)Cn1cnc(S(=O)(=O)Nc2cccnc2-n2cccn2)c1 | -1.98
9 | O=C(NC(c1ccc(Cl)cc1)C(F)(F)F)c1nc(=O)[nH][nH]1 (stereo not drawn) | 29.9
10 | Cn1c(N)nnc1SC1CCCN(c2ccccc2)C1=O (stereo not drawn) | -1
11 | CCN(C(=O)Cc1ccc(NCc2ncc[nH]2)cc1)c1ccccc1 | -5.61
12 | O=C(NC(CC(F)(F)F)c1ccc(Cl)cc1)c1nc(=O)[nH][nH]1 (stereo not drawn) | 0.759
13 | CCn1cc(S(=O)(=O)Nc2cccnc2-n2cccn2)nc1C | -2.93
14 | COCC(O)CN1CCC(NC(=O)c2cccc(C)c2)CC1 (stereo not drawn) | -2.52
15 | COc1cc(F)cc(CNC(=O)Nc2ccn(CC(F)F)n2)c1 | -2.34
16 | CCOc1ccc(NC(=O)c2oc(CC)cc2C)cc1CO | -3.11
17 | c1csc(-c2noc(CCCNC3CCc4ncnn4C3)n2)c1 (stereo not drawn) | -4.28
18 | COC(=O)c1cccc(C(=O)N(C)Cc2cccc(F)c2)c1 | 5.14
19 | Cc1ncc(C(=O)NCCNc2ncccn2)s1 | -2.18
20 | Cc1cc(N(C)C)nc(N2CCCC2c2cc(C)on2)n1 (stereo not drawn) | -1.73

Row | Compound | cytotoxicity at 70.5 h [%]
21 | COc1cccc(SCCCn2cnc3c(N)ncnc32)c1 | 6.56
22 | Cc1nc(CN2CCN(c3ccc(Cl)cn3)CC2)no1 | -6.61
23 | CN(C)CC1CCCCN1C(=O)c1ccc(N2CCOCC2)cc1 (stereo not drawn) | 0.118
24 | CCCN(Cc1cnn(C)c1)S(=O)(=O)c1cccc(F)c1C#N | -2.96
25 | CCOc1cccc(NC(=O)c2cc[nH]n2)n1 | -3.18
26 | CCOc1cccc(NC(=O)c2cnc(C)cn2)n1 | -3.9
27 | CNC(=O)CN1CCC(CN(C)Cc2ccncc2Cl)CC1 | -3.24
28 | Cc1ccc(S(N)(=O)=O)cc1C(=O)NC1CCN(C2CC2)CC1 | 21.9
29 | O=c1[nH]cnc2c1CCN(S(=O)(=O)c1cccc(OC(F)(F)F)c1)C2 | -5.76
30 | CC(=O)c1cc(Br)cc(F)c1OCC(=O)NC1CC1 | 0.481
31 | CCC1CCCCCN1C(=O)c1ccc(N2CCC(O)CC2)cc1 (stereo not drawn) | -1.83
32 | Cc1cc(C)nc(NC2CCC(=O)N(C)C2)n1 (stereo not drawn) | -8.23
33 | COCc1cc(N(C)Cc2ncnn2C)nc(C(C)(C)C)n1 | -10.6
34 | CC(C)(C)OC(=O)N1CCC(NC2CC2)CC1 | -7.1
35 | Cc1noc(C)c1CN(C)Cc1csc(-c2ccccc2F)n1 | -3.72
36 | COCc1cc(N(C)Cc2cnccn2)nc(C(C)(C)C)n1 | -12.2
37 | COc1cccc(CNc2nc(N3CCOCC3)ns2)c1OC | 15.5
38 | O=C(NCC(=O)N1CCCC1Cc1cccc(F)c1)C1CCCC1 (stereo not drawn) | -1.38
39 | Cc1cc(C)n(CCCNC(=O)NCc2c(C)cc(C)[nH]c2=O)n1 | 2.42
40 | COC(=O)CC(NC(=O)c1cc(OC)c2c(c1)OCCO2)c1cccs1 (stereo not drawn) | -9.89

Row | Compound | cytotoxicity at 70.5 h [%]
41 | N#Cc1ccc(S(=O)(=O)NC(=O)c2csc(-c3ccco3)n2)cc1 | -2.89
42 | Cc1cc(C)n(CC(C)CNC(=O)NCc2c(C)cc(C)[nH]c2=O)n1 (stereo not drawn) | -10.1
43 | C=C(C)CN1CCC(NC(=O)Nc2ccc(F)c(C(N)=O)c2)CC1 | -6.42
44 | CNS(=O)(=O)c1ccc(CNC(=O)C2CN(C)CCO2)cc1 (stereo not drawn) | -5.64
45 | CNS(=O)(=O)c1ccc(CNC(=O)C2CCCN(C)C2)cc1 (stereo not drawn) | -6.65
46 | CCOc1c(F)cccc1C(=O)N(c1cccnc1)C(C)C | -3.95
47 | Cc1c(COC(C)C)cccc1NC(=O)N1CCC(N2CCCC2)C1 (stereo not drawn) | 9
48 | CCc1n[nH]c(NC(=O)c2ccc(Cl)cn2)c1Br | -2.17
49 | Cc1c(COC(C)C)cccc1NC(=O)N1CC[C@H](O)C1 | -6.27
50 | CCCn1nc2c(cc1=O)CN(c1ncnc3ccsc13)CC2 | -13
51 | Cc1c(COc2ccccc2)cccc1NC(=O)N1CC[C@H](O)C1 | -1.47
52 | O=C(Cc1ccon1)N1CCN(c2ccncc2Cl)CC1 | 5.48
53 | COc1ccc(CNc2nc(N3CCOCC3)ns2)cc1 | -10.7
54 | CCOc1c(F)cccc1C(=O)N(CC)C(C)c1ccncc1 (stereo not drawn) | -4.06
55 | O=C(Cn1cc(C2CC2)nn1)N(Cc1ccco1)Cc1cccs1 | -2.55
56 | O=C(Cc1cccnc1)NCCSc1ccccc1F | -11.1
57 | CCC(NCCn1cccn1)C(=O)Nc1cc(C)on1 (stereo not drawn) | 24.9
58 | CC(Cc1cccc(F)c1)C(=O)NS(=O)(=O)c1ccc(F)cc1 (stereo not drawn) | 11.8
